Laboratory results from patent US20240174618A1, “SUBSTITUTED (2-HETEROARYLOXYPHENYL)SULFONATES, SALTS THEREOF AND THEIR USE AS HERBICIDAL AGENTS” (Bayer Aktiengesellschaft, priority 2021, published 2024).

Legend:
Assay type in all cases: in vivo
Veronica persica (VERPE) [1] = experiment: E. Herbicidal post-emergence efficacy, VERPE
Method: (§1) Seeds of monocotyledonous and dicotyledonous weeds and crop plants were placed in sandy loam in plastic or organic planting pots, covered with soil and cultivated in a greenhouse under controlled growth conditions. 2 to 3 weeks after sowing, the test plants were treated at the one-leaf stage. The compounds of the invention, formulated in the form of wettable powders (WP) or as emulsion concentrates (EC), were then sprayed onto the green parts of the plants as aqueous suspension or emulsion with addition of 0.5% additive at a water application rate of 600 l/ha (converted). After the test plants had been kept in the greenhouse under optimum growth conditions for about 3 weeks, the activity of the preparations was rated visually in comparison to untreated controls.
(§2) For example, • 100% efficacy=plants have died, • 0% action=like untreated control plants.
(§3) Tables E1a to E12b below show the effects of selected compounds of the general formula (I) according to table 1 on various harmful plants at an application rate corresponding to 320 g/ha or less, which were obtained by the experimental procedure mentioned above.

[2] = tested on: Amaranthus retroflexus (AMARE); experiment: E. Herbicidal post-emergence efficacy, AMARE
Method: as §1, §2, §3

Zea mays (ZEAMX) [3] = experiment: D. Pre-emergence effect on useful plants, ZEAMX; details: useful plant
Source text: (§4) Seeds of monocotyledonous and dicotyledonous weed plants and crop plants were placed in plastic or organic planting pots and covered with soil. The compounds of the invention, formulated in the form of wettable powders (WP) or as emulsion concentrates (EC), were then applied to the surface of the covering soil as aqueous suspension or emulsion with addition of 0.5% additive at a water application rate equivalent to 600 l/ha (converted). After the treatment, the pots were placed in a greenhouse and kept under good growth conditions for the test plants. After about 3 weeks, the efficacy of the preparations was scored visually in comparison with untreated controls as percentages. For example, • 100% efficacy=plants have died, • 0% efficacy=like untreated control plants.
(§5) Tables D1a to D5b below show the effects of selected compounds of the general formula (I) according to table 1 on various useful plants at an application rate corresponding to 320 g/ha or less, which were obtained by the experimental procedure mentioned above.

Kochia scoparia (KCHSC) [4] = experiment: E. Herbicidal post-emergence efficacy, KCHSC
Method: as §1, §2, §3

Viola tricolor (VIOTR) [5] = experiment: E. Herbicidal post-emergence efficacy, VIOTR
Method: as §1, §2, §3

Zea mays (ZEAMX) [6] = experiment: F. Post-emergence effect on useful plants, ZEAMX; details: useful plant
Method: as §1, §2
(§6) Tables F1a to F4 below show the effects of selected compounds of the general formula (I) according to table 1 on various useful plants at an application rate corresponding to 320 g/ha or less, which were obtained by the experimental procedure mentioned above.

[7] = tested on: Triticum aestivum (TRZAS); experiment: D. Pre-emergence effect on useful plants, TRZAS; details: useful plant
Source text: as §4, §5

[8] = tested on: Amaranthus retroflexus (AMARE); experiment: C. Herbicidal pre-emergence efficacy, AMARE; details: scored after about 3 weeks
Source text: as §4
(§7) Tables C1a to C14b below show the effects of selected compounds of the general formula (I) according to table 1 on various harmful plants at an application rate corresponding to 320 g/ha or less, which were obtained by the experimental procedure mentioned above.

[9] = tested on: Triticum aestivum (TRZAS); experiment: F. Post-emergence effect on useful plants, TRZAS; details: useful plant
Method: as §1, §2, §6

Lolium rigidum (LOLRI) = experiment: C. Herbicidal pre-emergence efficacy, LOLRI; details: 320 g/ha, scored after about 3 weeks
Source text: as §4, §7

[10] = tested on: Abutilon theophrasti (ABUTH); experiment: E. Herbicidal post-emergence efficacy, ABUTH; details: application rate 320 g/ha
Method: as §1, §2, §3

Veronica persica (VERPE) [11] = experiment: C. Herbicidal pre-emergence efficacy, VERPE; details: 320 g/ha, scored after about 3 weeks
Source text: as §4, §7

[12] = tested on: Echinochloa crus-galli (ECHCG); experiment: E. Herbicidal post-emergence efficacy, ECHCG; details: application rate 320 g/ha
Method: as §1, §2, §3

[13] = tested on: Echinochloa crus-galli (ECHCG); experiment: C. Herbicidal pre-emergence efficacy, ECHCG; details: 320 g/ha, scored after about 3 weeks
Source text: as §4, §7

Kochia scoparia (KCHSC) [14] = experiment: C. Herbicidal pre-emergence efficacy, KCHSC; details: application rate 320 g/ha
Source text: as §4, §7

Viola tricolor (VIOTR) [15] = experiment: C. Herbicidal pre-emergence efficacy, VIOTR
Source text: as §4, §7

[16] = tested on: Pharbitis purpurea (PHBPU); experiment: E. Herbicidal post-emergence efficacy, PHBPU; details: application rate 320 g/ha
Method: as §1, §2, §3

[17] = tested on: Digitaria sanguinalis (DIGSA); experiment: C. Herbicidal pre-emergence efficacy, DIGSA; details: scored after about 3 weeks
Source text: as §4, §7

Setaria viridis (SETVI) = experiment: C. Herbicidal pre-emergence efficacy, SETVI; details: 320 g/ha, scored after about 3 weeks
Source text: as §4, §7

Pre-emergence efficacy against ZEAMX in % (Zea mays (ZEAMX) [3]; application rate 80 g/ha)	Post-emergence efficacy against ZEAMX in % (Zea mays (ZEAMX) [6]; application rate 80 g/ha)	Post-emergence efficacy against ZEAMX in % (Zea mays (ZEAMX) [6]; application rate 320 g/ha)	Post-emergence efficacy against TRZAS in % ([9]; application rate 80 g/ha)	Post-emergence efficacy against TRZAS in % ([9]; application rate 320 g/ha)	SMILES	Post-emergence efficacy against VERPE in % (Veronica persica (VERPE) [1]; application rate 80 g/ha)	Post-emergence efficacy against VERPE in % (Veronica persica (VERPE) [1]; application rate 320 g/ha)	Post-emergence efficacy against AMARE in % ([2]; application rate 80 g/ha)	Post-emergence efficacy against AMARE in % ([2]; application rate 320 g/ha)	Post-emergence efficacy against KCHSC in % (Kochia scoparia (KCHSC) [4]; application rate 320 g/ha)	Post-emergence efficacy against VIOTR in % (Viola tricolor (VIOTR) [5]; application rate 320 g/ha)	Pre-emergence efficacy against AMARE ([8]; 320 g/ha)	also measured
0%	0%	20%	0%	0%	N#Cc1cccc(Oc2ncc(Cl)cn2)c1OS(=O)(=O)CCC(F)(F)F [Example I-82]	100%	100%	90%	100%	90%	80%	80%	Post-emergence efficacy against KCHSC in % (Kochia scoparia (KCHSC) [4]; application rate 80 g/ha): 90%; Post-emergence efficacy against VIOTR in % (Viola tricolor (VIOTR) [5]; application rate 80 g/ha): 80%; Pre-emergence efficacy against TRZAS in % ([7]; application rate 80 g/ha): 0%; Pre-emergence efficacy against TRZAS in % ([7]; application rate 320 g/ha): 0%
0%	10%	20%	0%	20%	Cc1cccc(Oc2ncc(Cl)cn2)c1OS(=O)(=O)CC=C(Cl)Cl [Example I-83]	80%	100%	90%	100%	80%	100%	100%	Pre-emergence efficacy against LOLRI (Lolium rigidum (LOLRI)): 80%; Post-emergence efficacy against ABUTH in % [10]: 80%; Pre-emergence efficacy against ZEAMX in % (Zea mays (ZEAMX) [3]; application rate 320 g/ha): 0%; Pre-emergence efficacy against VERPE (Veronica persica (VERPE) [11]): 90%; Post-emergence efficacy against ECHCG in % [12]: 80%; Pre-emergence efficacy against ECHCG [13]: 90%; Pre-emergence efficacy against KCHSC in % (Kochia scoparia (KCHSC) [14]): 80%; Pre-emergence efficacy against VIOTR in % (Viola tricolor (VIOTR) [15]; application rate 80 g/ha): 90%; Pre-emergence efficacy against VIOTR in % (Viola tricolor (VIOTR) [15]; application rate 320 g/ha): 100%; Post-emergence efficacy against PHBPU in % [16]: 100%; Pre-emergence efficacy against DIGSA ([17]; 80 g/ha): 80%; Pre-emergence efficacy against DIGSA ([17]; 320 g/ha): 100%; Pre-emergence efficacy against AMARE ([8]; 80 g/ha): 80%; Pre-emergence efficacy against SETVI (Setaria viridis (SETVI)): 100%
